Test results from patent US8148392B2, “2-indolyl imidazo [4,5-d] phenanthroline derivatives and their use in the treatment of cancer” (Lorus Therapeutics Inc., priority 2005, dated 2012).

Key:
[1] = tested on: CCRF-CEM leukemia cells; assay: Apoptosis, annexin V-FITC/PI flow cytometry, CCRF-CEM; assay type: cell-based, human; conditions: 0.1-1 μM, 24 hours
Procedure: The ability of compound 3 to alter the population of cells at different stages of apoptosis was measured by determining the effect of compound 3 on populations of CCRF-CEM leukemia cells treated with vehicle (DMSO), 0.1 μM, 0.25 μM, 0.5 μM, or 1 μM of compound 3 for 24 hours. CCRF-CEM cells were seeded and treated with the above concentrations of compound 3 or 0.1% DMSO vehicle control as described in Example 23. After 24 hours, the cells were collected by centrifugation and re-suspended in growth media to approximately 1×10^6 cells/ml. Then the cells were stained for annexin V binding and PI staining using the annexin V-FITC apoptosis detection kit (Oncogene™ research products, Mass.) and following the manufacturer's RAPID Annexin V Binding protocol. The fluorescence of stained cells was analyzed using FACScan flow cytometer and the Cell Quest program (BD Biosciences, San Jose, Calif.). Data were evaluated using Modfit software (Verity software House, Topsham, Me.) to generate quadrant statistics. Cells stained with Annexin V only are considered to be in early apoptosis, whereas cells stained with both Annexin V and propidium iodide are considered to be in late apoptosis. Cells stained with propidium iodide only are non-viable, whereas no staining indicates viable cells. MOLT-4 leukemia cells were treated similarly.

[2] = tested on: K-562 leukemia cell line; assay: NCI DTP in vitro screen, K-562; assay type: cell-based, human; conditions: K-562, in words
Procedure: For example, the following methodology, which is currently employed by the NCI, can be used to assess the GI50 of a candidate compound of Formula I in the selected cancer cell lines. Briefly, cell suspensions are diluted (5000-40,000 cells per well) and 100 μL of the diluted cell suspension is added into 96-well microtiter plates. Inoculates are allowed a preincubation period of 24 h at 37° C. for stabilization. Dilutions at twice the intended test concentration of the candidate compound are added at time zero in 100 μL aliquots to the microtiter plate wells. Test compounds are generally evaluated at five 10-fold dilutions. In routine testing, the highest well concentration is usually 10E-4 M, but this may be adjusted depending on the compound being tested. […] The cells are then assayed by using the sulforhodamine B assay (see, for example, Skehan, P., et al. (1990) JNCI, J. Natl. Cancer Inst. 82, 1107-1112; and Chen, S. F., et al. (1990) Proc. Am. Assoc. Cancer Res. 31, A2644) employing a plate reader which can be used to read the optical densities.
Compounds 2 and 3 were evaluated for their antiproliferative effects in a panel of 60 human cancer cell lines as part of the in vitro anticancer screening services provided by the DTP (Developmental Therapeutics Program) of the US National Cancer Institute (NCI).

For `Cc1[nH]c2ccccc2c1-c1nc2c3cccnc3c3ncccc3c2[nH]1` [Compound 3], the induction of apoptosis [1] was “increase in the number of early and late apoptotic cells” and the GI50 [2] was “nanomolar range”.
